From patent US20240018125A1, “CYCLIC ISOTHIOUREA DERIVATIVES AS CXCR4 MODULATORS” (ERMIUM THERAPEUTICS, priority 2020, published 2024)
Where a name gives a salt, the structure may show the parent alone.

What was measured:
[1] = biological target: T1, human CXCR4 (hCXCR4) receptor (Homo sapiens, UniProt P61073); experiment: BRET assay of antagonist activity on the CXCR4-CXCL12 signaling pathway (Gαi2 recruitment) in HEK-293 T cells; assay type: cell-based; conditions: HEK-293 T cells with hCXCR4, Gαi2 and BRET biosensors; 10 min with compound, then EC80 CXCL12
T1 construct: expressed in transfected cells; host or cells: HEK-293 T cells, transient co-transfection with polyethylenimine
Experimental: Examples of the present invention were tested for their antagonist activity on human CXCR4 (hCXCR4) receptor transiently over-expressed in HEK-293 T cells. Compounds exert antagonist activity if they decrease the action of CXCL12 on the receptor.
The specific effector (luciferase tagged: BRET donor) recruited at the membrane will be in close proximity to a plasma membrane anchor (GFP tagged: BRET acceptor) to induce a BRET signal (Hamdan et a1, 2006, Chapter 5, Current Protocols in Neuroscience).
HEK-293 T cells are maintained in Dulbecco's Modified Eagle's Medium supplemented with 10% Foetal Calf Serum, 1% Penicillin/Streptomycin at 37° C./5% CO2. Cells are co-transfected using polyethylenimine (25 kDa linear) with several DNA plasmids encoding: hCXCR4; Gai2; an intracellular effector fused to luciferase (BRET donor); a plasma membrane effector fused to GFP (BRET acceptor). After transfection, cells are cultured for 48 h at 37° C./5% CO2. On the day of the assay, cells are detached using trypsin 0.05%, resuspended in assay buffer (1.8 mM CaCl2, 1 mM MgCl2, 2.7 mM KCl, 137 mM NaCl, 0.4 mM NaH2PO4, 5.5 mM D-Glucose, 11.9 mM NaHCO3, 25 mM Hepes) and seeded in 384 well plate at a density of 20,000 cells per well. Then, plates are equilibrated 3.5 h at 37° C. before adding compounds. Compounds and luciferase substrate are added to the cells using an automated device (Freedom Evo®, Tecan) and BRET readings are collected on EnVision (PerkinElmer) with specific filters (410 nm BW 80 nm, 515 nm BW 30 nm).
Cells are first incubated for 10 minutes with the compound alone. Then, cells are stimulated by an EC80 CXCL12 concentration for additional 10 minutes and luminescence is recorded. EC80 CXCL12 concentration is the concentration giving 80% of the maximal CXCL12 response. Antagonist activity is evaluated in comparison to basal signals evoked by EC80 CXCL12 alone.
For IC50 determination, a dose-response test is performed using 20 concentrations (ranging over 6 logs) of each compound. Dose-response curves are fitted using the sigmoidal dose-response (variable slope) analysis in GraphPad Prism software (GraphPad Software) and IC50 of antagonist activity is calculated. Dose-response experiments are performed in duplicate, in two independent experiments.
HEK-293 T cells were transfected to allow measuring the recruitment of Gai2 proteins involved in intracellular signaling by human CXCR4 receptor (hCXCR4) via the BRET technology. Cells were then incubated with various concentrations of examples of the invention before stimulation with an EC80 concentration of CXCL12.

[2] = test system: Male C57BL/6 Rj mice; experiment: In vivo evaluation of CXCR4 antagonistic activity by mobilisation of blood cells; design: species or system mouse; conditions: 30 mg/kg single i.p., 2:30 h after injection; shown also for neutrophils, monocytes, lymphocytes, eosinophils
Experimental: Male C57BL/6 Rj mice (7 weeks old) were obtained from Janvier (Le Genest-Saint-Isle, France). Mice were treated by a single intraperitoneal (i.p.) administration at timepoint 0 h. The experimental groups (n=10) were defined as follows: • Mice of group 1 were treated with vehicle only (0.9% NaCl aqueous solution) • Mice of group 2 were treated with AMD3100 (CXCR4 antagonist, Sigma-Aldrich, St Louis, USA) at 20 mg/kg (volume of 10 mL/kg) in 0.9% NaCl aqueous solution • Mice of group 3 were treated with an exemplary compound of formula (I), i.e. Example 60, at 30 mg/kg (volume of 10 mL/kg) in 0.9% NaCl aqueous solution
After 2:30 h, whole blood (at least 200 μl, max 1 mL) was collected in EDTA tubes before sacrifice by an intracardiac puncture under isoflurane anaesthesia and haematology parameters were determined the same day by laser flow cytometry, optical fluorescence and Laminar Flow Impedance™ using the ProCyte Dx hematology analyser (IDEXX, Eau Claire, USA). Differential leukocyte counts were performed to quantify specific immune cell types. Data are reported as total number of cells (K/μL), mean±S.E.M., as well as the statistical significance versus the vehicle control group using unpaired t-tests.

T1 sequence (P61073 whole entry): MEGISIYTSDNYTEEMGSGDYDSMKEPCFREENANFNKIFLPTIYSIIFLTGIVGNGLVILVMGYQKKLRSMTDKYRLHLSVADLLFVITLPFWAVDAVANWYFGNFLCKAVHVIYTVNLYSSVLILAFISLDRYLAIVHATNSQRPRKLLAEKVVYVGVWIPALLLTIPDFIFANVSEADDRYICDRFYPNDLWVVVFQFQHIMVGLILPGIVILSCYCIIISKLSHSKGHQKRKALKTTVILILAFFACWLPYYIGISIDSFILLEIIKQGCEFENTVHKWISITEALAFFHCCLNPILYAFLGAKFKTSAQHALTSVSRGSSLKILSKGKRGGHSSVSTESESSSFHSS

`Clc1ccc2c(c1)CN=C(SCCCCN1CCCC1)N2` [Example 60, 6-chloro-2-((4-(pyrrolidin-1-yl)butyl)thio)-1,4-dihydroquinazoline dihydrochloride] was tested. Which IC50 [1] did it give?
Its IC50 is at least 15 µM.

And the “numbers of white blood cells in the blood vs vehicle control” value [2]?
Its value is “not increased”.
